Experimental data taken from patent US6727253B2, “Treatment of accidental extravasation of anthracyclines” (Antianthra APS, priority 1999, dated 2004).
Where two headings read alike, the source gives them in different places.

How the values were obtained:
[1] = system: SC idarubicin induced wounds in mice; settings: for AUC / DW / FW / TTW: Table A
Protocol: The mice were euthanized after healing of all wounds.
[…] Half of the groups served a saline controls, whereas in the other half of the groups ICRF-187 250 mg/kg was administered IP at t=0.

[2] = system: wound after doxorubicin SC in swine; assay: Pilot study on swine, doxorubicin SC; type: in vivo; settings: 3 mg doxorubicin SC, ICRF-187 25 mg/kg IV at t=0
Protocol: (§1) A danish porker weighting approximately 30 kg was used. The animals were fully anesthesized and artificially ventilated during SC injection of 1 ml of anthracycline.

[3] = system: wound after daunorubicin SC in swine; assay: Pilot study on swine, daunorubicin SC; type: in vivo; settings: 1 ml daunorubicin SC
Protocol: as §1

[4] = Example 9, idarubicin 0.05 mg/kg sc + ICRF-187 250 mg/kg IP at t=0
[5] = Example 9, idarubicin 0.25 mg/kg sc + ICRF-187 250 mg/kg IP at t=0
[6] = Example 9, idarubicin 0.75 mg/kg sc + ICRF-187 250 mg/kg IP at t=0
[7] = idarubicin 0.05 mg/kg SC + DEX 250 mg/kg IP at t=0
[8] = idarubicin 0.25 mg/kg SC + DEX 250 mg/kg IP at t=0
[9] = idarubicin 0.75 mg/kg SC + DEX 250 mg/kg IP at t=0, pooled data
[10] = idarubicin 1.50 mg/kg SC + DEX 250 mg/kg IP at t=0

**Q.** Which results are given for `C[C@@H](CN1CC(=O)NC(=O)C1)N1CC(=O)NC(=O)C1` [ICRF-187, (+)-1,2-bis(3,5-dioxopiperazinyl-1-yl)propane]?
**A.** Mean AUC [1, 4]: 4 mm^2 × days; Mean DWw ± SEM [1, 4]: 13.0 ± 0.0 days; Mean TTWw ± SEM [1, 4]: 12.0 ± 0.0 days; Nw/NG [1, 4]: 11%; Mean AUC [1, 5]: 38 mm^2 × days; Mean DWw ± SEM [1, 5]: 20.0 ± 0.0 days; Mean TTWw ± SEM [1, 5]: 6.0 ± 0.0 days; Nw/NG [1, 5]: 11%; Mean AUC [1, 6]: 44 mm^2 × days; Mean DWw ± SEM [1, 6]: 17.5 ± 0.5 days; Mean TTWw ± SEM [1, 6]: 8.0 ± 0.0 days; Nw/NG [1, 6]: 22%; reduction in the AUC ([1]; Example 9, idarubicin 0.75 mg/kg sc, ICRF-187 250 mg/kg IP vs saline, p<0.05): 90%; AUC [1, 7]: 4 (± 4) mm^2×days; DW [1, 7]: 13.0 (± 0.0) days; FW [1, 7]: 11%; TTW [1, 7]: 12.0 (± 0.0) days; AUC [1, 8]: 38 (± 38) mm^2×days; DW [1, 8]: 20.0 (± 0.0) days; FW [1, 8]: 11%; TTW [1, 8]: 6.0 (± 0.0) days; AUC [1, 9]: 42 (± 19) mm^2×days; DW [1, 9]: 15.6 (± 2.7) days; FW [1, 9]: 28%; TTW [1, 9]: 10.2 (± .5) days; AUC [1, 10]: 183 (± 54) mm^2×days; DW [1, 10]: 17.8 (± 0.9) days; FW [1, 10]: 75%; TTW [1, 10]: 7.7 (± 0.2) days; deaths due to the treatment ([1]; mouse, in vivo): no deaths due to the treatment; ulcer development [2]: did not develope an ulcer; wound appearance ([3]; ICRF-187 25 mg/kg IV daily for three days): no wound appeared; wound appearance ([3]; ICRF-187 50 mg/kg IV at t=0): a small wound appeared
